Reference: publication PMC12355328 (ACS Omega, 2025)
≈ marks a conversion by molar mass, not a printed value. Residues, ends and D or L forms follow the SMILES beside them.

What was measured:
[1] = Dye-leakage assay, POPE/POPG; details: 100 μM POPE/POPG LUV; 298 K
[2] = Dye-leakage assay, POPG/TOCL; details: 100 μM POPG/TOCL LUV; 298 K
[3] = Circular dichroism spectroscopy; assay type: physicochemical; details: 50 μM, 100 mM NaF, 10 mM KH2PO4, pH 7.5; averaged of three repeats, 298 K
DnaK = DnaK (Escherichia coli, UniProt P0A6Y8); test: DnaK binding assay
DNA gyrase = DNA gyrase (Escherichia coli, UniProt P0AES4+P0AES6); test: DNA gyrase inhibition; assay type: biochemical
E. coli BAA 3051 = test: MIC assay, ciprofloxacin-resistant E. coli; assay type: cell-based, Escherichia coli; details: E. coli BAA 3051 (ciprofloxacin-resistant); MHB, 6 h, OD600; concentration at which growth surpassed 10%
E. coli ATCC25922 = test: MIC assay, ciprofloxacin-sensitive E. coli; assay type: cell-based, Escherichia coli; details: MHB, 6 h, OD600, concentration at which growth surpassed 10%

DnaK, sequence (P0A6Y8 whole entry): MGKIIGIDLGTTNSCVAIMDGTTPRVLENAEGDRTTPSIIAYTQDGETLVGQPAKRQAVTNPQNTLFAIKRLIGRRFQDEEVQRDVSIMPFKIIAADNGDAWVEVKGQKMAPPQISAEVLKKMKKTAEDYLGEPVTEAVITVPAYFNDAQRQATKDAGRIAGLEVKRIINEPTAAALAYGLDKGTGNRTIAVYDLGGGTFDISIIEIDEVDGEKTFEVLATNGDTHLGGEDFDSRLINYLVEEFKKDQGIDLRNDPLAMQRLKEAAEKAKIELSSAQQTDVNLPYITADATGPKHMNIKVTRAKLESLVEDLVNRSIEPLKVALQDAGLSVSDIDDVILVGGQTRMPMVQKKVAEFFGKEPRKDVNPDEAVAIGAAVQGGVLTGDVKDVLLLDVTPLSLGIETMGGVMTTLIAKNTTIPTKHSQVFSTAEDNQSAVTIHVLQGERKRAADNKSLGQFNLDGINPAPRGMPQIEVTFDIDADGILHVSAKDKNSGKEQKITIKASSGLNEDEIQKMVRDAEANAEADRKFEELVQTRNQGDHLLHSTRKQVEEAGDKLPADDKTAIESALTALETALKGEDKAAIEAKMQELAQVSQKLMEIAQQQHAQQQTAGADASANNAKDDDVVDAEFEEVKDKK
DNA gyrase, sequence (P0AES4 whole entry, one chain of several): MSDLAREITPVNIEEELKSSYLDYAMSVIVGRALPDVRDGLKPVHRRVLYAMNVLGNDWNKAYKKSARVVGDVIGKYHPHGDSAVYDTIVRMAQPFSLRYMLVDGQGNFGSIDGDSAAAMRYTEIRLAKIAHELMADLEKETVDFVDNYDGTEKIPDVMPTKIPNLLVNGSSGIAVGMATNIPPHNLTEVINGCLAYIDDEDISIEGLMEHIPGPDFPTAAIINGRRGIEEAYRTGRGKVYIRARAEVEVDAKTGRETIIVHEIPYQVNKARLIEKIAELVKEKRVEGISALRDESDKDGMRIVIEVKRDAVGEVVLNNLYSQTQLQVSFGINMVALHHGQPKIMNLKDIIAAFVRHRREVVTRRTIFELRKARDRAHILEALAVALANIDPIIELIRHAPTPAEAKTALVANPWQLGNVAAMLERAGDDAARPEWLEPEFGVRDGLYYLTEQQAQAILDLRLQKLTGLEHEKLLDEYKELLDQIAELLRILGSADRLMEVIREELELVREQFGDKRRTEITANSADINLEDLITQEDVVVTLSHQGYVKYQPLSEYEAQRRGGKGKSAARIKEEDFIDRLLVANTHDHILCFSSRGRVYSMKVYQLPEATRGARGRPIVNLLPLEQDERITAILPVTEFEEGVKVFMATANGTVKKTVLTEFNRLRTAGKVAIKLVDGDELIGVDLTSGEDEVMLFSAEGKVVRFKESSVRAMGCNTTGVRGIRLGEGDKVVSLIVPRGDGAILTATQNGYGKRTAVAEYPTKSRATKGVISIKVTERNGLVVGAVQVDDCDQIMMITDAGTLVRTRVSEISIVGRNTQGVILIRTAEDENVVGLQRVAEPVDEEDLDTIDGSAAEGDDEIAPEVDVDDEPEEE

| SMILES | leakage profile (in words) [1] | leakage profile (in words) [2] | CD: conformation / aggregation in buffer (in words) [3] | IC50 (DnaK) | Ki (DnaK) | IC50 (DNA gyrase) | MIC (E. coli BAA 3051) | MIC (E. coli ATCC25922) |
| --- | --- | --- | --- | --- | --- | --- | --- | --- |
| O=C(O)c1cn(C2CC2)c2cc(N3CCNCC3)c(F)cc2c1=O [ciprofloxacin] | showed a similar trend to POPC | showed a similar trend as in POPC | not optically active in CD | – | – | – | – | – |
| CC[C@H](C)[C@H](NC(=O)[C@H](CCCNC(=N)N)NC(=O)[C@H](CCCNC(=N)N)NC(=O)[C@@H]1CCCN1C(=O)[C@@H]1CCCN1C(=O)[C@H](CCCNC(=N)N)NC(=O)[C@@H]1CCCN1C(=O)[C@H](CCCNC(=N)N)NC(=O)[C@@H]1CCCN1C(=O)[C@H](CC(C)C)NC(=O)[C@H](Cc1ccc(O)cc1)NC(=O)[C@@H]1CCCN1C(=O)[C@@H]1CCCN1C(=O)[C@H](CCCCN)NC(=O)[C@H](CC(=O)O)NC(=O)[C@@H](N)C(C)C)C(=O)N[C@@H](Cc1ccc(O)cc1)C(=O)N[C@@H](CC(N)=O)C(=O)N[C@@H](CCCNC(=N)N)C(N)=O [oncocin] (H-VDKPPYLPRPRPPRRIYNR-NH2) | – | – | – | 1540 nM | 390 nM | > 10 µM | 1 µM (≈ 2.39 µg/mL) | 1 µM (≈ 2.39 µg/mL) |
